Results published in PubChem BioAssay (NCI).
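96-well plates; 48 h exposure; 5 concentrations. Endpoints by linear interpolation between flanking doses. Not reached: highest tested concentration assigned. GI50 marks 50% less growth. Definition used: TGI = concentration required for complete inhibition of growth.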

tested on: SK-MEL-2 melanoma; test: inhibition of tumour cell growth, NCI panel, 48 h

Compound | GI50 | TGI
CCn1c(-c2nonc2N)nc2cnc(Oc3cccc(NC(=O)c4ccc(N(C)C)cc4)c3)cc21 | > 25 µM | > 25 µM
COc1ccc2c(c1)C(=O)c1c-2c(OCCN(C)C)nc2cc(OC)c(OC)cc12 | > 100 µM | > 100 µM
COc1ccc(COCC[C@H](C)OC2OC(CO)C(O)C(O)C2O)cc1 (some centres undefined) | – | > 100 µM

tested on: SK-MEL-28 melanoma; test: inhibition of tumour cell growth, NCI panel, 48 h

Compound | GI50 | TGI
CCn1c(-c2nonc2N)nc2cnc(Oc3cccc(NC(=O)c4ccc(N(C)C)cc4)c3)cc21 | > 25 µM | > 25 µM
Cc1cc(S(N)(=O)=O)c(S/C(=N\NS(=O)(=O)c2ccccc2)c2ccc(Cl)cc2)cc1Cl | > 100 µM | > 100 µM
COc1ccc2c(c1)C(=O)c1c-2c(OCCN(C)C)nc2cc(OC)c(OC)cc12 | 18.9 µM | 35.4 µM
COc1ccc(COCC[C@H](C)OC2OC(CO)C(O)C(O)C2O)cc1 (some centres undefined) | – | > 100 µM

tested on: SK-MEL-5 melanoma; test: inhibition of tumour cell growth, NCI panel, 48 h

Compound | GI50 | TGI
CCn1c(-c2nonc2N)nc2cnc(Oc3cccc(NC(=O)c4ccc(N(C)C)cc4)c3)cc21 | > 25 µM | > 25 µM
Cc1cc(S(N)(=O)=O)c(S/C(=N\NS(=O)(=O)c2ccccc2)c2ccc(Cl)cc2)cc1Cl | 67.9 µM | > 100 µM
COc1ccc2c(c1)C(=O)c1c-2c(OCCN(C)C)nc2cc(OC)c(OC)cc12 | 32.1 µM | > 100 µM
COc1ccc(COCC[C@H](C)OC2OC(CO)C(O)C(O)C2O)cc1 (some centres undefined) | – | > 100 µM

tested on: SK-OV-3 ovarian; test: inhibition of tumour cell growth, NCI panel, 48 h

Compound | GI50 | TGI
CCn1c(-c2nonc2N)nc2cnc(Oc3cccc(NC(=O)c4ccc(N(C)C)cc4)c3)cc21 | > 13.7 µM | > 25 µM
Cc1cc(S(N)(=O)=O)c(S/C(=N\NS(=O)(=O)c2ccccc2)c2ccc(Cl)cc2)cc1Cl | > 100 µM | > 100 µM
COc1ccc2c(c1)C(=O)c1c-2c(OCCN(C)C)nc2cc(OC)c(OC)cc12 | 18.9 µM | > 100 µM
COc1ccc(COCC[C@H](C)OC2OC(CO)C(O)C(O)C2O)cc1 (some centres undefined) | – | > 100 µM

tested on: SN12C renal; test: inhibition of tumour cell growth, NCI panel, 48 h

Compound | GI50 | TGI
CCn1c(-c2nonc2N)nc2cnc(Oc3cccc(NC(=O)c4ccc(N(C)C)cc4)c3)cc21 | > 25 µM | > 25 µM
Cc1cc(S(N)(=O)=O)c(S/C(=N\NS(=O)(=O)c2ccccc2)c2ccc(Cl)cc2)cc1Cl | 46.5 µM | > 100 µM
COc1ccc2c(c1)C(=O)c1c-2c(OCCN(C)C)nc2cc(OC)c(OC)cc12 | 2.72 µM | > 100 µM
COc1ccc(COCC[C@H](C)OC2OC(CO)C(O)C(O)C2O)cc1 (some centres undefined) | – | > 100 µM

tested on: SNB-19 CNS; test: inhibition of tumour cell growth, NCI panel, 48 h

Compound | GI50 | TGI
CCn1c(-c2nonc2N)nc2cnc(Oc3cccc(NC(=O)c4ccc(N(C)C)cc4)c3)cc21 | > 25 µM | > 25 µM
Cc1cc(S(N)(=O)=O)c(S/C(=N\NS(=O)(=O)c2ccccc2)c2ccc(Cl)cc2)cc1Cl | > 100 µM | > 100 µM
COc1ccc2c(c1)C(=O)c1c-2c(OCCN(C)C)nc2cc(OC)c(OC)cc12 | 2.28 µM | 31.5 µM
COc1ccc(COCC[C@H](C)OC2OC(CO)C(O)C(O)C2O)cc1 (some centres undefined) | – | > 100 µM

tested on: SNB-75 CNS; test: inhibition of tumour cell growth, NCI panel, 48 h

Compound | GI50 | TGI
CCn1c(-c2nonc2N)nc2cnc(Oc3cccc(NC(=O)c4ccc(N(C)C)cc4)c3)cc21 | 0.106 µM | > 25 µM
COc1ccc2c(c1)C(=O)c1c-2c(OCCN(C)C)nc2cc(OC)c(OC)cc12 | 8.65 µM | 26.1 µM
COc1ccc(COCC[C@H](C)OC2OC(CO)C(O)C(O)C2O)cc1 (some centres undefined) | – | > 100 µM

tested on: SR leukemia; test: inhibition of tumour cell growth, NCI panel, 48 h

Compound | GI50 | TGI
Cc1cc(S(N)(=O)=O)c(S/C(=N\NS(=O)(=O)c2ccccc2)c2ccc(Cl)cc2)cc1Cl | 49.2 µM | > 100 µM
COc1ccc2c(c1)C(=O)c1c-2c(OCCN(C)C)nc2cc(OC)c(OC)cc12 | 1.22 µM | 14.4 µM
COc1ccc(COCC[C@H](C)OC2OC(CO)C(O)C(O)C2O)cc1 (some centres undefined) | – | > 100 µM

tested on: SW-620 colon; test: inhibition of tumour cell growth, NCI panel, 48 h

Compound | GI50 | TGI
CCn1c(-c2nonc2N)nc2cnc(Oc3cccc(NC(=O)c4ccc(N(C)C)cc4)c3)cc21 | > 25 µM | > 25 µM
Cc1cc(S(N)(=O)=O)c(S/C(=N\NS(=O)(=O)c2ccccc2)c2ccc(Cl)cc2)cc1Cl | > 100 µM | > 100 µM
COc1ccc2c(c1)C(=O)c1c-2c(OCCN(C)C)nc2cc(OC)c(OC)cc12 | 0.476 µM | 16.9 µM
COc1ccc(COCC[C@H](C)OC2OC(CO)C(O)C(O)C2O)cc1 (some centres undefined) | – | > 100 µM

tested on: T-47D breast; test: inhibition of tumour cell growth, NCI panel, 48 h

Compound | GI50 | TGI
CCn1c(-c2nonc2N)nc2cnc(Oc3cccc(NC(=O)c4ccc(N(C)C)cc4)c3)cc21 | 9.62 µM | > 25 µM
Cc1cc(S(N)(=O)=O)c(S/C(=N\NS(=O)(=O)c2ccccc2)c2ccc(Cl)cc2)cc1Cl | > 100 µM | > 100 µM
COc1ccc2c(c1)C(=O)c1c-2c(OCCN(C)C)nc2cc(OC)c(OC)cc12 | > 100 µM | > 100 µM
COc1ccc(COCC[C@H](C)OC2OC(CO)C(O)C(O)C2O)cc1 (some centres undefined) | – | > 100 µM

tested on: TK-10 renal; test: inhibition of tumour cell growth, NCI panel, 48 h

Compound | GI50 | TGI
CCn1c(-c2nonc2N)nc2cnc(Oc3cccc(NC(=O)c4ccc(N(C)C)cc4)c3)cc21 | 0.549 µM | > 21 µM
Cc1cc(S(N)(=O)=O)c(S/C(=N\NS(=O)(=O)c2ccccc2)c2ccc(Cl)cc2)cc1Cl | > 100 µM | > 100 µM
COc1ccc2c(c1)C(=O)c1c-2c(OCCN(C)C)nc2cc(OC)c(OC)cc12 | 13.9 µM | 27.5 µM
COc1ccc(COCC[C@H](C)OC2OC(CO)C(O)C(O)C2O)cc1 (some centres undefined) | – | > 100 µM

tested on: U251 CNS; test: inhibition of tumour cell growth, NCI panel, 48 h

Compound | GI50 | TGI
CCn1c(-c2nonc2N)nc2cnc(Oc3cccc(NC(=O)c4ccc(N(C)C)cc4)c3)cc21 | > 25 µM | > 25 µM
Cc1cc(S(N)(=O)=O)c(S/C(=N\NS(=O)(=O)c2ccccc2)c2ccc(Cl)cc2)cc1Cl | > 100 µM | > 100 µM
COc1ccc2c(c1)C(=O)c1c-2c(OCCN(C)C)nc2cc(OC)c(OC)cc12 | 3.08 µM | 19.1 µM
COc1ccc(COCC[C@H](C)OC2OC(CO)C(O)C(O)C2O)cc1 (some centres undefined) | – | > 100 µM

tested on: UACC-257 melanoma; test: inhibition of tumour cell growth, NCI panel, 48 h

Compound | GI50 | TGI
CCn1c(-c2nonc2N)nc2cnc(Oc3cccc(NC(=O)c4ccc(N(C)C)cc4)c3)cc21 | > 25 µM | > 25 µM
Cc1cc(S(N)(=O)=O)c(S/C(=N\NS(=O)(=O)c2ccccc2)c2ccc(Cl)cc2)cc1Cl | 54.5 µM | > 100 µM
COc1ccc2c(c1)C(=O)c1c-2c(OCCN(C)C)nc2cc(OC)c(OC)cc12 | > 100 µM | > 100 µM
COc1ccc(COCC[C@H](C)OC2OC(CO)C(O)C(O)C2O)cc1 (some centres undefined) | – | > 100 µM

tested on: UACC-62 melanoma; test: inhibition of tumour cell growth, NCI panel, 48 h

Compound | GI50 | TGI
CCn1c(-c2nonc2N)nc2cnc(Oc3cccc(NC(=O)c4ccc(N(C)C)cc4)c3)cc21 | > 25 µM | > 25 µM
Cc1cc(S(N)(=O)=O)c(S/C(=N\NS(=O)(=O)c2ccccc2)c2ccc(Cl)cc2)cc1Cl | > 100 µM | > 100 µM
COc1ccc2c(c1)C(=O)c1c-2c(OCCN(C)C)nc2cc(OC)c(OC)cc12 | 51.5 µM | > 100 µM
COc1ccc(COCC[C@H](C)OC2OC(CO)C(O)C(O)C2O)cc1 (some centres undefined) | – | > 100 µM

tested on: UO-31 renal; test: inhibition of tumour cell growth, NCI panel, 48 h

Compound | GI50 | TGI
CCn1c(-c2nonc2N)nc2cnc(Oc3cccc(NC(=O)c4ccc(N(C)C)cc4)c3)cc21 | 0.0235 µM | > 18.8 µM
Cc1cc(S(N)(=O)=O)c(S/C(=N\NS(=O)(=O)c2ccccc2)c2ccc(Cl)cc2)cc1Cl | > 100 µM | > 100 µM
COc1ccc2c(c1)C(=O)c1c-2c(OCCN(C)C)nc2cc(OC)c(OC)cc12 | 0.658 µM | 9.37 µM
COc1ccc(COCC[C@H](C)OC2OC(CO)C(O)C(O)C2O)cc1 (some centres undefined) | – | > 100 µM
